The source of these data is ChEMBL document CHEMBL4808208, “Hepatoselective Dihydroquinolizinone Bis-acids for HBsAg mRNA Degradation” (ACS Med Chem Lett, 2021).

Where “and” joins values, the source holds several entries; their conditions need not be identical. Equal values may be shown once. Calls of active or inactive are those of the source. The calls are words filed in the database; no cut-off is given here.

Data set [1] in a line: AUC (last) in CD-1 mouse liver at 8 mg/kg, po measured for 24 hrs by LC-MS/MS analysis. In kind it is ADME, organism-based. On the set-up: route oral, time 24 hrs, dose 8 mg/kg.
A short description of data set [2]: Metabolic stability in mouse liver microsomes assessed as clearance preincubated with compound for 10 mins followed by NADPH regenerating system addition and measured per mg protein for 60 mins by LC/MS-MS analysis. The data set is classed as ADME, Microsome. To be noted: time 70 min, read-out: CLH. A general note: Liver microsomes are a subcellular fraction often used to study metabolism.

A short description of data set [3]: Volume of distribution at steady state in CD-1 mouse at 3 mg/kg, iv measured for 24 hrs by LC-MS/MS analysis. In kind it is ADME, organism-based. The note with it: in vivo, read-out: Vdss.
Data set [4] in a line: Drug concentration in CD-1 mouse liver at 8 mg/kg, po measured after 2 hrs by LC-MS/MS analysis. To be noted: read-out: Ct. The data set is classed as ADME, organism-based.
In another data set the test system is OATP1B1. The data set is described as follows: Ratio of drug uptake in HEK293 cells transfected with OATP1B1 (unknown origin) in absence of transporter inhibitor, estradiol-17beta-glucuronide to drug uptake in HEK293 cells in absence of transporter inhibitor, estradiol-17beta-glucuronide by LC-MS/MS analysis. In kind it is ADME, cell-based. To be noted: human, HEK293 cells transfected with OATP1B1 versus HEK293 cells.

Data set [5] can be described thus: Apparent permeability of the compound across apical to basolateral side in human Caco-2 cells at 10 uM incubated for 1 hr. The data set is classed as ADME, cell-based. In general terms: Caco-2 cells form a polarised layer with tight junctions and transporters.
Data set [6] has as its target Terminal nucleotidyltransferase 4A (Homo sapiens) (UniProt Q5XG87). The data set is described as follows: Inhibition of human PAPD7 expressed in HEK293 cells assessed as inhibition of poly-adenylation reaction using P32-labeled RNA oligonucleotides (5'-GCCUUUCAUCUCUAACUGCGAAAAAAAAAA-3') as substrate measured for 3 hrs by phosphor imaging analysis. The data set is classed as cell-based. To be noted: dose 0.37-10 µM.

In a further data set the test system is Hepatitis B virus. The data set is described as follows: Antiviral activity against Hepatitis B virus infected in human HepG2.2.15 cells assessed as reduction in HBV subgenomic 2.4/2.1 kb mRNA level at 1 uM measured after 5 days by Northern blot analysis. In kind it is functional, organism-based. The note with it: time 5.0 day.
A short description of data set [7]: Drug concentration in CD-1 mouse liver at 8 mg/kg, po measured after 8 hrs by LC-MS/MS analysis. The data set is classed as ADME, organism-based. The note with it: read-out: Ct.
Another data set concerns the target T1, Cytochrome P450 2C8 (Homo sapiens, UniProt P10632).
T1 sequence (P10632 whole entry): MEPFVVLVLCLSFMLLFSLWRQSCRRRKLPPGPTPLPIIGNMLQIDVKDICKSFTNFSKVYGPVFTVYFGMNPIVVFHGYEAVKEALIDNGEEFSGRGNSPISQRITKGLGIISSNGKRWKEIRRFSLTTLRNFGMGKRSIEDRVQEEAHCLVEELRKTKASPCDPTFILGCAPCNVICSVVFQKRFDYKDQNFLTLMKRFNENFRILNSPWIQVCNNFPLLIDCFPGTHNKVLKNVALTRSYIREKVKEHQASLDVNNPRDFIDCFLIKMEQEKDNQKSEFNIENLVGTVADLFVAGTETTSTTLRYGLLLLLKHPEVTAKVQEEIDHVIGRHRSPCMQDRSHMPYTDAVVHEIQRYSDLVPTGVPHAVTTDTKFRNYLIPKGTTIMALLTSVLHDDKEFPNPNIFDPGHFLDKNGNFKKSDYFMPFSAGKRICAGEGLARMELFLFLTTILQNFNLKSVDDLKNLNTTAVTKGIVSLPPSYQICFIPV
The data set is described as follows: Inhibition of CYP2C8 in human liver microsomes using paclitaxel as substrate preincubated for 5 mins followed by NADPH addition by LC-MS/MS analysis. In kind it is ADME.

Data set [8] can be described thus: AUC (last) in CD-1 mouse plasma at 3 mg/kg, iv measured for 24 hrs by LC-MS/MS analysis. The data set is classed as ADME, organism-based. The arrangement: route intravenous, time 24 hrs, dose 3 mg/kg.
In another data set the test system is OATP1B3. The data set is described as follows: Ratio of drug uptake in HEK293 cells transfected with OATP1B3 (unknown origin) in absence of transporter inhibitor, estradiol-17beta-glucuronide to drug uptake in HEK293 cells in absence of transporter inhibitor, estradiol-17beta-glucuronide by LC-MS/MS analysis. To be noted: human, HEK293 cells transfected with OATP1B3 versus HEK293 cells. In kind it is ADME, cell-based.

Data set [9] is described as follows: Drug concentration in CD-1 mouse liver at 8 mg/kg, po measured after 15 mins by LC-MS/MS analysis. In kind it is ADME, organism-based. To be noted: read-out: Ct.
A further data set concerns the target Cytochrome P450 2D6 (Homo sapiens, UniProt P10635). The data set is described as follows: Inhibition of CYP2D6 in human liver microsomes using dextromethorphan as substrate preincubated for 5 mins followed by NADPH addition by LC-MS/MS analysis. In kind it is ADME.
The target of the next data set is T2, Cytochrome P450 2B6 (Homo sapiens, UniProt P20813).
T2 sequence (P20813 whole entry): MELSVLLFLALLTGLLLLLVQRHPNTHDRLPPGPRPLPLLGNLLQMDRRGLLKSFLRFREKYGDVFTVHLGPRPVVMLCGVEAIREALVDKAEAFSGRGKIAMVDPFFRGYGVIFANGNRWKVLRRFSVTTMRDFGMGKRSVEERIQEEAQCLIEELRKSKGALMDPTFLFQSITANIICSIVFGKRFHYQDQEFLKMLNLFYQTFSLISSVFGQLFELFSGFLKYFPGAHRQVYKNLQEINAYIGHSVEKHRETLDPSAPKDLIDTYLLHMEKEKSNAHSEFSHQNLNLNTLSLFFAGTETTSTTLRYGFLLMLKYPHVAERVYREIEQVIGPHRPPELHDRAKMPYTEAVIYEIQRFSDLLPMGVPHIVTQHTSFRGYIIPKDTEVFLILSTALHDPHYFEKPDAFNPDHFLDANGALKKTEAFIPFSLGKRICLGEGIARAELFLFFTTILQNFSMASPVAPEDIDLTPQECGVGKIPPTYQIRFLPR
Description: Inhibition of CYP2B6 in human liver microsomes using bupropion as substrate preincubated for 5 mins followed by NADPH addition by LC-MS/MS analysis. In kind it is ADME.

Data set [10] can be described thus: Oral bioavailability in CD-1 mouse plasma at 8 mg/kg measured for 24 hrs by LC-MS/MS analysis. In kind it is ADME, organism-based.
The nature of data set [11]: 1-Octanol/saturated PBS buffer distribution coefficient, logD of the compound incubated for 1 hr by LC-MS/MS analysis. The data set is classed as physicochemical.
The next data set deals with T3, Cytochrome P450 2A6 (Homo sapiens, UniProt P11509).
T3 sequence (P11509 whole entry): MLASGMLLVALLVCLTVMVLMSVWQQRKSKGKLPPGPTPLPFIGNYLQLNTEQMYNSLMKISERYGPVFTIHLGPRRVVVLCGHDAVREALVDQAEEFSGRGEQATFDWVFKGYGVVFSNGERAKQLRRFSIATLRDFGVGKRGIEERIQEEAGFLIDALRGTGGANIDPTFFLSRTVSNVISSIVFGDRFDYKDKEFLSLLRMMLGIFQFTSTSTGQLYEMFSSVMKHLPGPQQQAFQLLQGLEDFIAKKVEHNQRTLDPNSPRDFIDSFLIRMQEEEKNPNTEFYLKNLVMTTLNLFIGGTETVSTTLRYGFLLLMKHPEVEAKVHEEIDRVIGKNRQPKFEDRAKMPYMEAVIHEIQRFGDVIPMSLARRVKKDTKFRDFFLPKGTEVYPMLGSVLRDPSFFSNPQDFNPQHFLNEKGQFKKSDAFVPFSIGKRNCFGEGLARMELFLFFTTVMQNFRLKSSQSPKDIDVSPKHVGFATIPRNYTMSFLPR
The data set is described as follows: Inhibition of CYP2A6 in human liver microsomes using coumarin as substrate preincubated for 5 mins followed by NADPH addition by LC-MS/MS analysis. In kind it is ADME.

By AUC(0-t) is commonly meant exposure summed from dosing to a finite time, without extrapolation to infinity. A lower AUC(0-t) goes with low exposure. The Papp A→B is how fast a substance crosses the layer from the apical side. In general, IC50 refers to the concentration that gives 50% inhibition. Read a high IC50 as weaker potency in that assay. By bioavailability is commonly meant the share of a dose that reaches the circulation, judged against a reference dose that is usually intravenous. Lower therefore signals poor availability. A word on the logD: it is the decadic logarithm of the distribution of all forms, ionised or not, between an organic phase and buffer at a given pH.

Chain of Cytochrome P450 2D6 (P10635 whole entry): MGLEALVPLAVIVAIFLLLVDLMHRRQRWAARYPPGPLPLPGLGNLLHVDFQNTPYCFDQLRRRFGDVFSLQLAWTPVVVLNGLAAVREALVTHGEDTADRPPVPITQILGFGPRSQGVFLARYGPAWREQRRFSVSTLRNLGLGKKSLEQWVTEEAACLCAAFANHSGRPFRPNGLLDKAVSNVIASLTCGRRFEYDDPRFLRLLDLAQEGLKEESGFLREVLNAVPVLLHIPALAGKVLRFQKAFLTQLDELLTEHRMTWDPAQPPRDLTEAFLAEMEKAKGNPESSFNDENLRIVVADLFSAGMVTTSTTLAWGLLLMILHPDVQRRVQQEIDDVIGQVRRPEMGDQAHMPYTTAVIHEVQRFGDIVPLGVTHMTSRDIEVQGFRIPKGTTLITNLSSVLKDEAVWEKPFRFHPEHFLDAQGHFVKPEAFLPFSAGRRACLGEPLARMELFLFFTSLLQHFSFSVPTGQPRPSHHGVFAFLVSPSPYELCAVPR
Chain of Terminal nucleotidyltransferase 4A (Homo sapiens) (Q5XG87 whole entry): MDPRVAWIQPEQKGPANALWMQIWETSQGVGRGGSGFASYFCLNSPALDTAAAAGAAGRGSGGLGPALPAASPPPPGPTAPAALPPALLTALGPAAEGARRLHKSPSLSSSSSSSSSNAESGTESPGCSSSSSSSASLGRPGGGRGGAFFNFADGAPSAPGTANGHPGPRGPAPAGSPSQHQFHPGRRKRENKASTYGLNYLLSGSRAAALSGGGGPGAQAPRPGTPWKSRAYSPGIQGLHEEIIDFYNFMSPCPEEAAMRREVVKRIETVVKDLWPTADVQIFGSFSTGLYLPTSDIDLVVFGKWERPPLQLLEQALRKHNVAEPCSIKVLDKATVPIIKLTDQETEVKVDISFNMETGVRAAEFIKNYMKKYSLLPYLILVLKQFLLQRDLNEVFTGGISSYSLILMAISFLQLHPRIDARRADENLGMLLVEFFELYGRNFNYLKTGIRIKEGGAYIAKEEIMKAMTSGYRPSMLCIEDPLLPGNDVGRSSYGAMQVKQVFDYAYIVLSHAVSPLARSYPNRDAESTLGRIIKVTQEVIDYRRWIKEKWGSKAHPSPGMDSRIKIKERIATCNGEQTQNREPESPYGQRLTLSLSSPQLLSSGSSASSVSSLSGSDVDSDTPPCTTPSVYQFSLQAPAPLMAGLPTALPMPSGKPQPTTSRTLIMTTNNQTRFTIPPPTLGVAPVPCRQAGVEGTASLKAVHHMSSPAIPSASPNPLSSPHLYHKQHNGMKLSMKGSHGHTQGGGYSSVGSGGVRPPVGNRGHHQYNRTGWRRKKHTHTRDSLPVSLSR

For `COc1cc2c(cc1OCCCCCCC(=O)O)C[C@@H](C(C)C)n1cc(C(=O)O)c(=O)cc1-2`, the AUC(0-t) at 24 h in [1] worked out at 1310 ng·h/mL; in data set [8], 255 ng·h/mL. For the same compound, the microsomal CLint in data set [2] is 0.8 µL/min/mg. Also, the Vd in [3] stood at 3.26 L/kg. Moreover, in [4], the concentration at 2 h is 261 ng/mL and 570 nM. In addition, the uptake ratio in the data set with OATP1B1 was found to be 19; in the data set on OATP1B3, 24.8. Moreover, in [5], the Papp A→B at 1 h, 10 µM stood at 0.39 ×10⁻⁶ cm/s. For the same compound, the inhibition entry in data set [6] is “Dose-Dependent Effect”. Also, in the data set with Hepatitis B virus, the outcome was Active. In addition, the concentration at 8 h in data set [7] is 63 ng/mL and 140 nM. For the same compound, the half-maximal inhibitory concentration (IC50) at Cytochrome P450 2C8, at Cytochrome P450 2D6, against Cytochrome P450 2B6 and against Cytochrome P450 2A6 was above 10 µM in each case. Moreover, the concentration at 0.25 h in data set [9] is 333 ng/mL and 730 nM. In data set [10], this compound came in with a bioavailability of 5.1%. This compound also gave a logD at 1 h in [11] of -0.65.
